Laboratory results reported in patent publication US12077503B2, “Substituted cyclic amides and their use as herbicides” (FMC CORPORATION, priority 2015, dated 2024).

Key:
Type in all cases: in vivo
[1] = tested on: barnyardgrass (Echinochloa crus-galli); assay: Test C flooded paddy test; settings: Flood; for Plant response rating (scale of 0 to 100), Barnyardgrass: 0 is no effect, 100 is complete control
Summary of the method: (§1)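 Compound was added directly to paddy water held 3 cm above the soil, with plants at the 2-leaf stage. Injury was scored visually versus untreated controls after 13–15 d greenhouse growth, using a 0–100 scale where 100 means complete control.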

[2] = tested on: ducksalad (Heteranthera limosa); assay: Test C flooded paddy test; settings: Flood; for Plant response rating (scale of 0 to 100), Ducksalad: 0 is no effect, 100 is complete control
Summary of the method: as §1

[3] = tested on: sedge, umbrella (small-flower umbrella sedge, Cyperus difformis); assay: Test C flooded paddy test; settings: Flood; for Plant response rating (scale of 0 to 100), Sedge, Umbrella: 0 is no effect, 100 is complete control
Summary of the method: as §1

rice (Oryza sativa) = assay: Test C flooded paddy test; settings: Flood; for Plant response rating (scale of 0 to 100), Rice: 0 is no effect, 100 is complete control
Summary of the method: as §1

[4] = tested on: blackgrass (Alopecurus myosuroides); assay: Test D preemergence; settings: scale 0 to 100
Text: (§2) Seeds of plant species selected from bluegrass (annual bluegrass, Poa annua), blackgrass (Alopecurus myosuroides), canarygrass (littleseed canarygrass, Phalaris minor), chickweed (common chickweed, Stellaria media), Galium (catchweed bedstraw, Galium aparine), bromegrass, downy (downy bromegrass, Bromus tectorum), field poppy (Papaver rhoeas), field violet (Viola arvensis), foxtail, green (green foxtail, Setaria viridis), deadnettle (henbit deadnettle, Lamium amplexicaule), ryegrass, Italian (Italian ryegrass, Lolium multiflorum), Kochia (Kochia scoparia), lambsquarters (Chenopodium album), oilseed rape (Brassica napus), pigweed (Amaranthus retroflexus), chamomile (scentless chamomile, Matricaria inodora), Russian thistle (Salsola kali), speedwell (bird's-eye speedwell, Veronica persica), barley, spring (spring barley, Hordeum vulgare), wheat, spring (spring wheat, Triticum aestivum), buckwheat, wild (wild buckwheat, Polygonum convolvulus), mustard, wild (wild mustard, Sinapis arvensis), oat, wild (wild oat, Avena fatua), radish, wild (wild radish, Raphanus raphanistrum), windgrass (Apera spica-venti), barley, winter (winter barley Hordeum vulgare), and wheat, winter (winter wheat, Triticum aestivum) were planted into a silt loam soil and treated preemergence with test chemicals formulated in a non-phytotoxic solvent mixture which included a surfactant.
(§3) Treated plants and controls were maintained in a controlled growth environment approximately 21 d after which time all species were compared to controls and visually evaluated. Plant response ratings, summarized in Table D, are based on a scale of 0 to 100 where 0 is no effect and 100 is complete control. A dash (-) response means no test result.

[5] = tested on: buckwheat, wild (wild buckwheat, Polygonum convolvulus); assay: Test D preemergence; settings: scale 0 to 100
Text: as §2, §3

[6] = tested on: field poppy (Papaver rhoeas); assay: Test D preemergence; settings: scale 0 to 100
Text: as §2, §3

[7] = tested on: barnyardgrass (Echinochloa crus-galli); assay: Test E preemergence; settings: scale 0 to 100
Summary of the method: (§4)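 Seeds sown in silt loam treated preemergence, or plants 2 to 18 cm tall in peat-based potting medium treated postemergence, with test chemical in a non-phytotoxic solvent mixture containing surfactant. Kept in greenhouse 14 to 21 d, then visually rated against controls on a 0–100 scale (0 no effect, 100 complete control).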

[8] = tested on: crabgrass, Brazil (Brazilian crabgrass, Digitaria horizontalis); assay: Test E preemergence; settings: scale 0 to 100
Summary of the method: as §4

[9] = tested on: goosegrass (Eleusine indica); assay: Test E preemergence; settings: scale 0 to 100
Summary of the method: as §4

[10] = tested on: johnsongrass (Sorghum halepense); assay: Test E preemergence; settings: scale 0 to 100
Summary of the method: as §4

[11] = tested on: nutsedge, yellow (yellow nutsedge, Cyperus esculentus); assay: Test E preemergence; settings: scale 0 to 100
Summary of the method: as §4

soybean (Glycine max) = assay: Test E preemergence; settings: scale 0 to 100
Summary of the method: as §4

[12] = 31 g ai/ha, scale 0 to 100 (0 no effect, 100 complete control), 13 to 15 d

## O=C1NCC(c2cccc(OC(F)(F)C(F)F)c2)C1C(=O)Nc1ccccc1F (racemic) [Compound 695]
[1]; [12]
  Plant response rating, Barnyardgrass: 20
[1]; 62 g ai/ha
  Plant response rating (scale of 0 to 100), Barnyardgrass: 60
[1]; 125 g ai/ha
  Plant response rating (scale of 0 to 100), Barnyardgrass: 65
[1]; 250 g ai/ha
  Plant response rating (scale of 0 to 100), Barnyardgrass: 70
[2]; [12]
  Plant response rating, Ducksalad: 30
[2]; 62 g ai/ha
  Plant response rating (scale of 0 to 100), Ducksalad: 50
[2]; 125 g ai/ha
  Plant response rating (scale of 0 to 100), Ducksalad: 80
[2]; 250 g ai/ha
  Plant response rating (scale of 0 to 100), Ducksalad: 100
[3]; [12]
  Plant response rating, Sedge, Umbrella: 0
[3]; 62 g ai/ha
  Plant response rating (scale of 0 to 100), Sedge, Umbrella: 0
[3]; 125 g ai/ha
  Plant response rating (scale of 0 to 100), Sedge, Umbrella: 0
[3]; 250 g ai/ha
  Plant response rating (scale of 0 to 100), Sedge, Umbrella: 0
Rice (Oryza sativa); [12]
  Plant response rating, Rice: 0
Rice (Oryza sativa); 62 g ai/ha
  Plant response rating (scale of 0 to 100), Rice: 0
Rice (Oryza sativa); 125 g ai/ha
  Plant response rating (scale of 0 to 100), Rice: 15
Rice (Oryza sativa); 250 g ai/ha
  Plant response rating (scale of 0 to 100), Rice: 15

## CN1CC(c2ccc(F)c(C(F)(F)F)c2)C(C(=O)Nc2cccc(F)c2F)C1=O (centres unmarked) [Compound 613]
[1]; 31 g ai/ha
  Plant response rating (scale of 0 to 100), Barnyardgrass: 0
[1]; 62 g ai/ha
  Plant response rating (scale of 0 to 100), Barnyardgrass: 30
[1]; 125 g ai/ha
  Plant response rating (scale of 0 to 100), Barnyardgrass: 50
[1]; 250 g ai/ha
  Plant response rating (scale of 0 to 100), Barnyardgrass: 60
[2]; 31 g ai/ha
  Plant response rating (scale of 0 to 100), Ducksalad: 0
[2]; 62 g ai/ha
  Plant response rating (scale of 0 to 100), Ducksalad: 60
[2]; 125 g ai/ha
  Plant response rating (scale of 0 to 100), Ducksalad: 75
[2]; 250 g ai/ha
  Plant response rating (scale of 0 to 100), Ducksalad: 100
[3]; 31 g ai/ha
  Plant response rating (scale of 0 to 100), Sedge, Umbrella: 0
[3]; 62 g ai/ha
  Plant response rating (scale of 0 to 100), Sedge, Umbrella: 0
[3]; 125 g ai/ha
  Plant response rating (scale of 0 to 100), Sedge, Umbrella: 0
[3]; 250 g ai/ha
  Plant response rating (scale of 0 to 100), Sedge, Umbrella: 0
Rice (Oryza sativa); 31 g ai/ha
  Plant response rating (scale of 0 to 100), Rice: 0
Rice (Oryza sativa); 62 g ai/ha
  Plant response rating (scale of 0 to 100), Rice: 0
Rice (Oryza sativa); 125 g ai/ha
  Plant response rating (scale of 0 to 100), Rice: 10
Rice (Oryza sativa); 250 g ai/ha
  Plant response rating (scale of 0 to 100), Rice: 20

## CN1CC(c2cccc(OC(F)F)c2)C(C(=O)Nc2ccccc2F)C1=O (centres unmarked) [Compound 618]
[1]; 31 g ai/ha
  Plant response rating (scale of 0 to 100), Barnyardgrass: 35
[1]; 62 g ai/ha
  Plant response rating (scale of 0 to 100), Barnyardgrass: 50
[1]; 125 g ai/ha
  Plant response rating (scale of 0 to 100), Barnyardgrass: 75
[1]; 250 g ai/ha
  Plant response rating (scale of 0 to 100), Barnyardgrass: 80
[2]; 31 g ai/ha
  Plant response rating (scale of 0 to 100), Ducksalad: 60
[2]; 62 g ai/ha
  Plant response rating (scale of 0 to 100), Ducksalad: 60
[2]; 125 g ai/ha
  Plant response rating (scale of 0 to 100), Ducksalad: 95
[2]; 250 g ai/ha
  Plant response rating (scale of 0 to 100), Ducksalad: 100
[3]; 31 g ai/ha
  Plant response rating (scale of 0 to 100), Sedge, Umbrella: 0
[3]; 62 g ai/ha
  Plant response rating (scale of 0 to 100), Sedge, Umbrella: 0
[3]; 125 g ai/ha
  Plant response rating (scale of 0 to 100), Sedge, Umbrella: 0
[3]; 250 g ai/ha
  Plant response rating (scale of 0 to 100), Sedge, Umbrella: 0
Rice (Oryza sativa); 31 g ai/ha
  Plant response rating (scale of 0 to 100), Rice: 0
Rice (Oryza sativa); 62 g ai/ha
  Plant response rating (scale of 0 to 100), Rice: 0
Rice (Oryza sativa); 125 g ai/ha
  Plant response rating (scale of 0 to 100), Rice: 15
Rice (Oryza sativa); 250 g ai/ha
  Plant response rating (scale of 0 to 100), Rice: 15

## CN1CC(c2ccc(C(F)(F)F)cc2)C(C(=O)Nc2ccccc2S(C)(=O)=O)C1=O (centres unmarked) [Compound 624]
[4]; 31 g ai/ha
  Plant response rating: Blackgrass: 5
[4]; 62 g ai/ha
  Plant response rating: Blackgrass: 5
[4]; 125 g ai/ha
  Plant response rating: Blackgrass: 15
[4]; 250 g ai/ha
  Plant response rating: Blackgrass: 85
[5]; 31 g ai/ha
  Plant response rating: Buckwheat, Wild: 0
[5]; 62 g ai/ha
  Plant response rating: Buckwheat, Wild: 0
[5]; 125 g ai/ha
  Plant response rating: Buckwheat, Wild: 15
[5]; 250 g ai/ha
  Plant response rating: Buckwheat, Wild: 50
[6]; 31 g ai/ha
  Plant response rating: Field Poppy: 15
[6]; 62 g ai/ha
  Plant response rating: Field Poppy: 25
[6]; 125 g ai/ha
  Plant response rating: Field Poppy: 100
[6]; 250 g ai/ha
  Plant response rating: Field Poppy: 100
[7]; 31 g ai/ha
  Plant response rating: Barnyardgrass: 0
[7]; 62 g ai/ha
  Plant response rating: Barnyardgrass: 30
[7]; 125 g ai/ha
  Plant response rating: Barnyardgrass: 50
[7]; 250 g ai/ha
  Plant response rating: Barnyardgrass: 65
[8]; 31 g ai/ha
  Plant response rating: Crabgrass, Brazil: 80
[8]; 62 g ai/ha
  Plant response rating: Crabgrass, Brazil: 80
[8]; 125 g ai/ha
  Plant response rating: Crabgrass, Brazil: 95
[8]; 250 g ai/ha
  Plant response rating: Crabgrass, Brazil: 100
[9]; 31 g ai/ha
  Plant response rating: Goosegrass: 50
[9]; 62 g ai/ha
  Plant response rating: Goosegrass: 75
[9]; 125 g ai/ha
  Plant response rating: Goosegrass: 80
[9]; 250 g ai/ha
  Plant response rating: Goosegrass: 100
[10]; 31 g ai/ha
  Plant response rating: Johnsongrass: 0
[10]; 62 g ai/ha
  Plant response rating: Johnsongrass: 0
[10]; 125 g ai/ha
  Plant response rating: Johnsongrass: 35
[11]; 31 g ai/ha
  Plant response rating: Nutsedge, Yellow: 0
[11]; 62 g ai/ha
  Plant response rating: Nutsedge, Yellow: 0
[11]; 125 g ai/ha
  Plant response rating: Nutsedge, Yellow: 0
[11]; 250 g ai/ha
  Plant response rating: Nutsedge, Yellow: 10
Soybean (Glycine max); 31 g ai/ha
  Plant response rating: Soybean: 0
Soybean (Glycine max); 62 g ai/ha
  Plant response rating: Soybean: 10
Soybean (Glycine max); 125 g ai/ha
  Plant response rating: Soybean: 20
Soybean (Glycine max); 250 g ai/ha
  Plant response rating: Soybean: 10

## CN1CC(c2cccc(C(F)(F)F)c2)C(C(=O)Nc2cccc(F)c2F)C1=O (centres unmarked) [Compound 636]
[4]; 31 g ai/ha
  Plant response rating: Blackgrass: 25
[4]; 62 g ai/ha
  Plant response rating: Blackgrass: 30
[4]; 125 g ai/ha
  Plant response rating: Blackgrass: 60
[4]; 250 g ai/ha
  Plant response rating: Blackgrass: 75
[5]; 31 g ai/ha
  Plant response rating: Buckwheat, Wild: 5
[5]; 62 g ai/ha
  Plant response rating: Buckwheat, Wild: 75
[5]; 125 g ai/ha
  Plant response rating: Buckwheat, Wild: 90
[5]; 250 g ai/ha
  Plant response rating: Buckwheat, Wild: 80
[6]; 31 g ai/ha
  Plant response rating: Field Poppy: 90
[6]; 62 g ai/ha
  Plant response rating: Field Poppy: 95
[6]; 125 g ai/ha
  Plant response rating: Field Poppy: 100
[6]; 250 g ai/ha
  Plant response rating: Field Poppy: 100
[7]; 31 g ai/ha
  Plant response rating: Barnyardgrass: 95
[7]; 62 g ai/ha
  Plant response rating: Barnyardgrass: 95
[7]; 125 g ai/ha
  Plant response rating: Barnyardgrass: 98
[7]; 250 g ai/ha
  Plant response rating: Barnyardgrass: 98
[8]; 31 g ai/ha
  Plant response rating: Crabgrass, Brazil: 95
[8]; 62 g ai/ha
  Plant response rating: Crabgrass, Brazil: 95
[8]; 125 g ai/ha
  Plant response rating: Crabgrass, Brazil: 98
[8]; 250 g ai/ha
  Plant response rating: Crabgrass, Brazil: 98
[9]; 31 g ai/ha
  Plant response rating: Goosegrass: 50
[9]; 62 g ai/ha
  Plant response rating: Goosegrass: 80
[9]; 125 g ai/ha
  Plant response rating: Goosegrass: 90
[9]; 250 g ai/ha
  Plant response rating: Goosegrass: 95
[10]; 31 g ai/ha
  Plant response rating: Johnsongrass: 90
[10]; 62 g ai/ha
  Plant response rating: Johnsongrass: 95
[10]; 125 g ai/ha
  Plant response rating: Johnsongrass: 95
[10]; 250 g ai/ha
  Plant response rating: Johnsongrass: 98
[11]; 31 g ai/ha
  Plant response rating: Nutsedge, Yellow: 0
[11]; 62 g ai/ha
  Plant response rating: Nutsedge, Yellow: 0
[11]; 125 g ai/ha
  Plant response rating: Nutsedge, Yellow: 0
[11]; 250 g ai/ha
  Plant response rating: Nutsedge, Yellow: 60
Soybean (Glycine max); 31 g ai/ha
  Plant response rating: Soybean: 0
Soybean (Glycine max); 62 g ai/ha
  Plant response rating: Soybean: 0
Soybean (Glycine max); 125 g ai/ha
  Plant response rating: Soybean: 0
Soybean (Glycine max); 250 g ai/ha
  Plant response rating: Soybean: 0
